The results in this text go back to US10758513B2, “Modulators of mitochondrial protein import” (THE REGENTS OF THE UNIVERSITY OF CALIFORNIA, priority 2011, dated 2020).

Broadly, the IC50 is the concentration at which inhibition is half-maximal.

The target of one assay is T1, Erv1 (Saccharomyces cerevisiae, UniProt P27882).
T1 construct: made in house
T1 sequence (P27882 1-189): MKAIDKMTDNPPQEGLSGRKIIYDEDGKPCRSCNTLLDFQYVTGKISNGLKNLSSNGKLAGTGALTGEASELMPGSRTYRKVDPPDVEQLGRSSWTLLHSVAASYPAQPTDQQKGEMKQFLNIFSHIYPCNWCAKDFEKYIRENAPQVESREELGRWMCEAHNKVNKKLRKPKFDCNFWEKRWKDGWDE
The assay is described as follows: In vitro Erv1 oxidase activity, Amplex Red-HRP assay. Format: biochemical, yeast.

Another assay addresses T2, Tim9-Tim10 complex (Saccharomyces cerevisiae, UniProt O74700+P87108).
T2 construct: endogenous in cells; host or cells: isolated yeast mitochondria
Briefly: Tim9-Tim10 complex stability by blue native gel. Conditions: 25 and 50 μM; BN gel. Format: biochemical, yeast. On the procedure: Respiration measurements were performed with an oxygen electrode using yeast mitochondria (M) from the tim10 tim9S suppressor strain in the presence of (A) 1% DMSO (vehicle control for drug) and (B) MitoBloCK-1. Respiration was initiated with NADH addition. 25 μM MitoBloCK-1 or 1% DMSO was added once steady-state respiration had been established. As a control, CCCP was added to uncouple the electron transport chain. (C) Respiration for series with DMSO or MitoBloCK-1 addition was quantitated (n=3). Bars represent mean rates with standard deviations as error bars. (D) Membrane potential (Δψ) of mitochondria measurements of purified mitochondria were performed with the fluorescent dye rhodamine 123 using a fluorimeter. Coupled mitochondria (M) sequestered and quenched the dye fluorescence; 1% DMSO was added to determine its effect on the […]. Collapse of the Δψ initiated by CCCP was included as a control. […] (H) As in 7B, MitoBloCK-1 (25 and 50 μM) was incubated with mitochondria and assembly of the Tim9-Tim10 complex was monitored by BN gels and immunoblotting with antibodies against Tim 10.
Steady-state levels of the small Tim complexes were analyzed from mitochondria isolates from TIA110,titn10-1, and titn10-1 titn9S strains following established methods (Murphy M P, et al., (2001), Mol Cell Biol 21:6132-6138). […]

Another assay has as its system mouse liver mitochondria. The assay is described as follows: Import of radiolabeled precursors into isolated mouse liver mitochondria. It is filed as biochemical. Also on record: import of AAC: dose or concentration left out as unconfirmed. Here is the method:
Mitochondria were purified from yeast cells grown in YPEG or selective SEG medium as described in previous studies (Glick B S, Pon L A (1995). Methods Enzymol 260:213-223). Yeast cultures were kept at a constant 25° C. with vigorous shaking during growth. After concentration was measured by BCA assay, mitochondria were stored in 25 mg/ml aliquots at −80° C. Mammalian mitochondria were isolated from 2-4 freshly excised mouse livers by differential centrifugation. Briefly, isolated livers were washed 3× with cold PBS and then suspended in 4-5 mL isolation buffer (70 mM Sucrose, 220 mM mannitol, 2rnM HEPES-KOH, pH 7.4) per gram of tissue. Livers were first chopped into small pieces and then dounced 5× using a teflon dounce. Homogenized material was then centrifuged at 1,000 RPM for […] in a clinical centrifuge and supernatants were transferred to fresh tubes. Centrifugation at 1,000 RPM for 10 min was then repeated and supernatants were transferred to microfuge tubes. Next, supernatant material was spun for 10 min at 800×g (this process was repeated a second time). The supernatants from these steps were subjected to a high-speed (12,000×g for 20 min) spin to pellet heavy membrane fractions. Pellets were washed in isolation buffer and spun again (12,000×g for 20 min). After the final centrifugation step, supernatants were discarded and heavy membrane fraction was resuspended in mammalian import buffer (250 mM sucrose, 5 mM magnesium acetate, 80 mM potassium acetate, 10 mM sodium succinate, 1 mM dithiothreitol, 0.1 mM ADP, 20 mM Hepes-KOH, pH 7.4) as described in Johnston A J, et al. (2002), J Biol Chem 277:42197-42204 and kept on ice. All subsequent imports were performed within 1 hour of isolation of mammalian mitochondria. Mitochondrial concentrations were determined by BCA assay.
Prior to import into purified mitochondria, ^35S-methionine and cysteine labeled proteins were generated with TNT Quick Coupled Transcription/Translation kits (Promega) and plasmids carrying the gene of interest. Transcription of genes was driven by either a T7 or SP6 promoter. […]

Assay [1] deals with tim10-1 tim9S mitochondria. Briefly: In vitro import of radiolabeled precursors into tim10-1 tim9S mitochondria. It is filed as biochemical, yeast. Here is the method:
Prior to import into purified mitochondria, ^35S-methionine and cysteine labeled proteins were generated with TNT Quick Coupled Transcription/Translation kits (Promega) and plasmids carrying the gene of interest. Transcription of genes was driven by either a T7 or SP6 promoter. Import reactions were conducted according to established methods. After frozen mitochondria aliquots were thawed and added to the import buffer at a final concentration of 100 μg/mL, drug or DMSO vehicle was added as indicated. A final vehicle concentration of 1% was used in all experiments. Following 15 minute incubation at 25° C., import reactions were initiated by the addition of […] of translation mix. Aliquots were removed at intervals during the reaction timecourse and import was terminated with either cold buffer, 25 μg/mL trypsin, or a combination of both. If trypsin was added to digest unimported precursor protein, soybean trypsin inhibitor (STI) was subsequently added in excess after 15 minute incubation on ice. After a final recovery of by centrifugation (8,000×g, 5 minutes), mitochondria were disrupted in Laemmli sample buffer. Imports of membrane proteins (AAC, PiC, Tom40, Tim22, and Tim23) included a carbonate extraction step to remove proteins that had not inserted into the membrane (Koehler C M, et al. (1998), Science 279:369-373). Samples from import reaction time points were resolved by SDS polyacrylamide gel electrophoresis (SDSPAGE) and gels were dried prior to exposing to film.

Each structure is given as a SMILES string.

T2 sequence (O74700 whole entry): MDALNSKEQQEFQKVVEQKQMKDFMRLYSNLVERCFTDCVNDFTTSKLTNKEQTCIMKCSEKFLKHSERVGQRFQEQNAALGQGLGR
T2 sequence (P87108 whole entry): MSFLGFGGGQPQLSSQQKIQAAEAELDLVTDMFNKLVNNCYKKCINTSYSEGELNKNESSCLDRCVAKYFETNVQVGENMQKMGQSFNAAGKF
Description for Erv1: The primary chemical screen used fresh recombinant Erv1 (in buffer 30 mM Hepes, pH 7.4, 100 mM NaCl, 1 mM EDTA) at a concentration of 10 μM, which was expressed as described previously. […] A Biomek FX (Beckman Coulter) was used to pin transfer 0.5 μl of compound from 1 mM stock or DMSO to respective wells. Approximate screening
concentration was 12.5 μM. After completed compound transfer, all plates were incubated at 25° C. in a humidified incubator for 1 hour. A Titertek multidrop was used to dispense 15 μl of Amplex Red-horseradish peroxidase (HRP) (Sigma) mix into all wells of the 384-well plate. The final concentration of Amplex Red and HRP were 46 μM and 0.092 U/ml, respectively. The Amplex Red-HRP solution was shielded from light during the entire experiment. The plates were incubated for an additional 10 min and then 15 μl of the substrate DTT (20 μM) was added to initiate the reduction of 02 to H2O2. […] Plates were then read at an endpoint using an excitation wavelength of 545 nm and an emission wavelength of 590 nm. […]
H2O2 production was measured using a standard fluorometric assay with Amplex Red and horseradish peroxidase (HRP). […] Fluorescence intensity was measured and reactions that were inhibited by more than 50% were picked as potential Erv1 inhibitors and selected for secondary analysis.

On Erv1, `Oc1c(Cl)cc(Cl)cc1/C=N/c1ccc(Nc2ccccc2)cc1` [MitoBloCK-6] yielded an IC50 of 900 nM.

As to `NC(=S)N/N=C/c1c(O)c(Br)cc2oc3c(c12)CCCC3` [MitoBloCK-1], the “steady-state stability of the Tim9-Tim10 complex” value at Tim9-Tim10 complex was “did not alter steady-state stability of the Tim9-Tim10 complex”. Besides, in the assay on mouse liver mitochondria, the “import of AAC” value is given as “inhibited”, the “import of Hsp60” value was “not altered” and the “import of Su9-DHFR” value is “not altered”. The “protease sensitivity of AAC precursor” value in assay [1] (presence of a membrane potential) was “sensitive to protease”. Further, in assay [1] (tim10-1 tim9S mitochondria), the “import of Hsp60 (TIM23 pathway)” value is listed as “did not impair import”, the “import of Mia40 (Mia40/Erv1 pathway)” value is “not inhibited”, the “import of Su9-DHFR (TIM23 pathway)” value was “did not impair import” and the “import of Tafazzin” value is given as “import was inhibited”. In addition, in assay [1] (tim10-1 tim9S mitochondria), the “import of Tim9 (Mia40/Erv1 pathway)” value is on record as “not inhibited”, the “import of Tim10 (Mia40/Erv1 pathway)” value is “not inhibited”, the “import of Tim22” value was “impaired” and the “import of Tim23” value is recorded as “but not Tim23 was impaired”. In assay [1] (tim10-1 tim9S mitochondria), the “import of Tom40” value is given as “inhibited the import”, the “import of cyt b2-DHFR (TIM23 pathway)” value is given as “did not impair import” and the “import of phosphate carrier (PiC)” value is “inhibited the import”. In assay [1] (tim10-1 tim9S mitochondria, 1 μM MitoBloCK-1 or greater), the “import of AAC” value was “markedly decreased”.
